Reference: publication PMC2757673, “Protein Misfolding as an Underlying Molecular Defect in Mucopolysaccharidosis III Type C” (PLoS ONE, 2009)
Structures can show the parent of a compound that is named as a salt.

Legend:
[1] = molecular target: T1, HGSNAT (heparan sulfate acetyl-CoA: α-glucosaminide N-acetyltransferase), HGSNAT-TAP (Homo sapiens, UniProt Q68CP4); test: fluorogenic N-acetyltransferase assay, Lineweaver-Burk plot, partially purified (streptavidin resin) enzyme; format: biochemical; conditions: acetyl-CoA co-substrate, 4MU-βGlcN 0.05-2.0 mM, McIlvain buffer pH 5.7, 37°C, 18 h
T1 construct: transient expression in COS-7 cells; homogenate or streptavidin-resin partially purified; ~77 kDa
T1 sequence (Q68CP4 1-663): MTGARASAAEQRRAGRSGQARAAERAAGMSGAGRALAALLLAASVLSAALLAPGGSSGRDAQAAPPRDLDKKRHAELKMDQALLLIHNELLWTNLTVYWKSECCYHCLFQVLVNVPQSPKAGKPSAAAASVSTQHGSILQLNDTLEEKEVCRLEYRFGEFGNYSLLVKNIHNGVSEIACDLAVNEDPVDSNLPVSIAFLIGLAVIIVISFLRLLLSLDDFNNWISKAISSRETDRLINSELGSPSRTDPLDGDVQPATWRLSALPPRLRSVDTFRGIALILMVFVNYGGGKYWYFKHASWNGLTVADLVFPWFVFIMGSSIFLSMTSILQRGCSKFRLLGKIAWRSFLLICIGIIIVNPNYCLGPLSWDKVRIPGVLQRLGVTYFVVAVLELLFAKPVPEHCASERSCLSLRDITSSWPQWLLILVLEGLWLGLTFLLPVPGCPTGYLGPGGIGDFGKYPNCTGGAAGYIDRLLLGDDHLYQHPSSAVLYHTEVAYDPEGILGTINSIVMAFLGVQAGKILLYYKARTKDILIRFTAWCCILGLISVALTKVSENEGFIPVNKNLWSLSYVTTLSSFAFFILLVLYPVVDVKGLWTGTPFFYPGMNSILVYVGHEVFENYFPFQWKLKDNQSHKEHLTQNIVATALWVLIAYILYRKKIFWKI

[2] = molecular target: T1, HGSNAT (heparan sulfate acetyl-CoA: α-glucosaminide N-acetyltransferase), HGSNAT-TAP; test: fluorogenic N-acetyltransferase assay, Dixon plot, homogenate of transfected COS-7 cells; format: biochemical; conditions: competitive; 4MU-βGlcN 0.0375-1.5 mM, 2 mM acetyl-CoA, McIlvain buffer pH 5.7, 37°C, 3 h

Row | Compound | KM [1] | Ki [2] [µM]
1 | Cc1cc(=O)oc2cc(O[C@@H]3O[C@H](CO)[C@@H](O)[C@H](O)[C@H]3N)ccc12 [4MU-βGlcN, 4-methylumbelliferyl β-D-glucosaminide] | Lineweaver-Burk plot of substrate dependance for partially purified HGSNAT wild-type and P237Q and V481L mutants | –
2 | N[C@H]1C(O)O[C@H](CO)[C@@H](O)[C@@H]1O (stereo partly drawn) [D-(+)-glucosamine hydrochloride] | – | 280
